Laboratory results taken from patent US20260097091A1, “ADMINISTRATION OF GLUTATHIONE TRISULFIDE TO AMELIORATE PERIPHERAL NEUROPATHY” (The General Hospital Corporation, priority 2022, published 2026).

Columns and labels:
mouse model of PIPN [1] = assay: von Frey test of mechanical allodynia in mouse model of paclitaxel-induced peripheral neuropathy; assay type: in vivo, mice (C57BL/6J)
Text: (§1) All animal protocols were approved by the Massachusetts General Hospital Institutional Animal Care and Use Committee. Animals were cared for in accordance with the guidelines established by the NIH and the International Association for the Study of Pain [16]. Male C57BL/6J mice (6-7 weeks old) were purchased from the Jackson Laboratory (Bar Harbor, ME, USA). The mice were housed in a 12-hour shift light-control environment from 7 am to […] with ad libitum access to food and water in our animal facility until the time of experiments.
(§2) Paclitaxel (Sigma-Aldrich) was dissolved with ethanol and cremophor (1:1) and diluted with normal saline (1:4). Peripheral neuropathy was induced in mice by intraperitoneal (i.p.) administration of 4 mg/kg paclitaxel every other day for a total of 4 injections (cumulative dose of 16 mg/kg), according to a previously described protocol. A stable, crystallized form of GSSSG was produced and provided by Kyowa Hakko Bio CO., LTD. GSSSG was pulverized and mixed in 0.5% methylcellulose. […] The dose of GSSSG was determined based on pilot studies. […]
Mechanical withdrawal thresholds were measured by the manual von Frey filament test to assess mechanical allodynia. […] The 50% threshold of a paw withdrawal response was calculated by the Up-down Reader based on the up and down method. […]

mouse model of PIPN [2] = assay: hot plate test of thermal hyperalgesia in mouse model of PIPN; assay type: in vivo, mice (C57BL/6J)
Text: as §1
as §2, with “LTD.” for “LTD. GSSSG was pulverized and mixed in 0.5% methylcellulose.”
To assess hyperalgesia, the heat threshold was determined by the hot plate test. […] The test was repeated 2 times after 5 minutes interval by a blinded examiner, and the average time was calculated. The ratio of change from the baseline was calculated from the difference of the latency response time from the baseline divided by the baseline time. […]

primary cortical neurons = assay: Dihydroethidium (DHE) superoxide assay in primary cortical neurons; assay type: cell-based, mice
Protocol: Primary cortical neurons were prepared from the cortex of mice on embryonic day 15, as described previously. In brief, the embryo's cortex was isolated in Hanks' balanced salt solution and centrifuged at 176×g (1000 rpm) for 3 minutes. After aspirating the solution, cells were incubated with 0.25% trypsin for 15 minutes and seeded 20,000/well in a 96-well plate coated with the poly-D-lysin (Gibco, Cat No. A3890401). They were incubated in Neurobasal medium (Gibco, Cat No. 21103049) with 2% B27 supplement (Gibco, Cat No. 10889038), 1% penicillin/streptomycin, and 1% Glutamax (Gibco, Cat No. 35050061) until day 11 when they were used for experiments.
To examine whether GSSSG reduces ROS generated by paclitaxel, we conducted Dihydroethidium (DHE) assay (Abcam, Cat No. ab236206) that is sensitive to superoxide. The experiment was done according to protocol provided by the manufacturer. Briefly, primary cortical neurons were incubated in DHE reagent with or without 10 and 30 μM of GSSSG for 30 minutes. After incubating, 100 nM of paclitaxel was administered, and cells were incubated for one hour. Fluorescence of DHE was measured at 490 nm of excitation and 585 nm of emission wavelength.

| SMILES | mechanical allodynia (von Frey test) (mouse model of PIPN [1]; GSSSG 50 mg/kg/day oral for 28 days in paclitaxel-treated mice, vs paclitaxel alone) | threshold for thermal hyperalgesia (hot plate test) (mouse model of PIPN [2]; GSSSG 50 mg/kg/day oral in paclitaxel-treated mice) | paclitaxel-induced increase of intracellular superoxide (DHE) (primary cortical neurons; 10 μM GSSSG co-incubation with 100 nM paclitaxel, vs paclitaxel) | paw withdrawal threshold (von Frey test) (mouse model of PIPN [1]; paclitaxel 4 mg/kg i.p. every other day, 4 injections, week 1 through week 4, vs control mice) | thermal hyperalgesia (hot plate test) (mouse model of PIPN [2]; paclitaxel 4 mg/kg i.p. every other day, 4 injections, 4 weeks, vs control) | intracellular levels of superoxide (DHE) (primary cortical neurons; 100 nM paclitaxel for one hour, vs control) |
| --- | --- | --- | --- | --- | --- | --- |
| N[C@@H](CCC(=O)N[C@@H](CSSSC[C@H](NC(=O)CC[C@H](N)C(=O)O)C(=O)NCC(=O)O)C(=O)NCC(=O)O)C(=O)O [GSSSG, glutathione trisulfide] | mitigated mechanical allodynia over the experimental period | not altered | prevented the paclitaxel-induced increase of intracellular superoxide | – | – | – |
| CC(=O)O[C@H]1C(=O)[C@@]2(C)[C@H]([C@H](OC(=O)c3ccccc3)[C@]3(O)C[C@H](OC(=O)[C@H](O)[C@@H](NC(=O)c4ccccc4)c4ccccc4)C(C)=C1C3(C)C)[C@]1(OC(C)=O)CO[C@@H]1C[C@@H]2O [paclitaxel, Paclitaxel, reference compound] | – | – | – | significantly lower paw withdrawal threshold than control mice | induced thermal hyperalgesia | increased |
